According to patent EP4799701A2, “PYRIMID-2-YL-PYRAZOLE COMPOUNDS AS IRAK INHIBITORS” (Rigel Pharmaceuticals, Inc., priority 2022, dated 2023):

How the values were obtained:
[1] = system: TLR7-induced TNF-α; test: TLR7-induced TNF-α in human PBMC (resiquimod); type: cell-based; conditions: human PBMCs; result in words
Protocol: Assay Protocol: TLR7-induced TNF-α in human Peripheral Blood Mononuclear Cells (PBMC).
• Corning™ Costar™ 96-Well, Cell Culture-Treated, U-Shaped-Bottom Microplate (Fisher, Cat# 07-200-95) • Human PBMC (ALL Cells, Cat# PB002) • Resiquimod (InvivoGen, Cat No. tlrl-r848) • Human TNF-α DuoSet ELISA Kit (R&D Systems, Cat# DY210) • Recombinant Human IFN-β (Peprotech, Cat# 300-02BC) • RPMI with 10% FBS • Axygen 96well, 1.1 mL, sterile (VWR International, Cat# 47734-788)
Human peripheral blood mononuclear cells (PBMC) were seeded at 100,000 cells per well in 100 µL of RPMI with 10% FCS and primed overnight with 8 ng/ml of IFN-β at 37 °C, 5% CO2. Compound was serially diluted in DMSO from 2 mM in 3-fold dilutions, and then diluted 1:100 in RPMI 1640 complete media with 10% FBS (2 x stock). The PBMCs were pre-incubated with test compound for 1 hour at 37 °C, 5% CO2 by adding 100 µL of RPMI media containing 2x concentrated test compound per well (0.5% final DMSO concentration).
The PBMCs were stimulated with resiquimod (10 µL per well of 21x concentrated resiquimod solution in RPMI media to give a final concentration of 0.1 µg/ml) at 37 °C, 5% CO2 for an additional 18 hours. 100 µL of supernatant per well was harvested to measure TNF-α. TNF-α was quantitated using DuoSet ELISA Kit per manufacturer's protocol.

[2] = Plasma protein binding, free drug comparison across species; type: in vitro ADME; conditions: free drug in rat, dog, monkey and human proteins
Protocol: Brain and plasma drug binding were performed by equilibrium dialysis using the Rapid Equilibrium Dialysis (RED) device. Briefly, 300 µL of plasma or brain homogenate (1 brain /3 buffer) containing drug (5 µM) was equilibrated (4-18 h) against 500 µL of buffered saline. After incubation, the concentration of drug in plasma/brain homogenate and buffer was determined by LC-MS/MS.
Higher free drug in plasma and brain allow for more drug to interact with the target. [drawing 34]
From a free drug perspective compound I-1 was approximately 6-times more free than Comparision-1 in rat, dog, monkey and human proteins.

[3] = system: TLR4-induced IL-23; test: LPS induced IL23p19 in THP-1 cells (IFNγ primed), IL-23p19 sandwich ELISA; type: cell-based, human; conditions: human THP-1 cells; result in words
Description: LPS induced IL23p19 in THP-1 cells (with IFNy primed) Assay
THP-1 Cells (ATCC, Cat# TIB-202), Dimethyl Sulfoxide (DMSO) (Sigma-Aldrich, Cat# D2650), RPMI 1640 (Cellgro, Cat# 10-040-CM), Fetal Bovine Serum (Sigma, Cat# F4135), Albumin From Bovine Serum (BSA) (Sigma-Aldrich, Cat#A7906), LPS (Serotype K-235, Sigma, Product Number L 2143), IFNγ (Peprotech, Cat# 300-02), Capture antibody: Human IL-23p19 ELISA (e-Bioscience, Cat. # 14-7238-85), Detection antibody: Primary Mouse Biotinylated anti-human IL-12(p40/p70) (e-Bioscience, Cat. # 13-7129-85), Secondary HRP-conjugated Streptavidin (R&D Systems, Cat#DY998), 1x PBST Washing Buffer (PBS-Tween tablet) (VWR International, Cat#80058-558), ELISA Blocking Buffer (PBS with 1% BSA), ELISA Dilution Buffer (PBS with 1% BSA), 384 Well Flat-Bottom, MaxiSorp Black Immuno Plates (Thermo Scientific, Cat# 12-565-346), 384 Well Flat-Bottom, White Tissue Culture Plates (Thermo Scientific, Cat# 12-565-343), Super Signal ELISA Pico Chemiluminescent Substrate (Thermo Scientific, Cat#37070), Cell Titer Glo reagent (Promega, Cat#G7573), Positive control, IKK2VI inhibitor (Calbiochem, Cat#401483), AquaMax 4000 plate washer (Molecular Devices), Luminometer, Wallac Victor2 1420 Multilabel Counter.
On day 1, 50K/well THP-1 cells were seeded and primed with IFNγ (50ng/mL) in 384-well plates for about 18 hours in RPMI media with 10%FBS. On day 2, the compound was serially diluted in DMSO from 5 mM in 3-fold dilutions, and then diluted 1:125 in RPMI media with 10%FBS. […] IL-23p19 protein in 70 µL/well of supernatant was measured by sandwich ELISA, and 25 µl/well Cell Titer Glo reagent was added to the remaining cells to measure compound toxicity.
Maxisorp immuno ELISA plates were pre-coated with 25 µL/well of anti-IL-23p19 capture antibody (2.5ug/mL) in PBS overnight at room temperature. […] The plates were read with a luminometer, and the chemiluminescence values were entered into Athena (Rigel) for curve fitting, EC50 calculation, and database storage. […]

[4] = system: TLR2- induced TNF-α; test: TLR2-induced TNF-α in human primary dendritic cells; type: cell-based; conditions: human primary dendritic cells (DC); result in words

more free than Comparision-1 [2]: approximately 6 times
SMILES: CCO[C@H]1CC[C@H](n2cc(NC(=O)c3csc(-c4cn[nH]c4)n3)c(-c3ncccn3)n2)CC1 [Compound I-1, N-(1-((1r,4r)-4-ethoxycyclohexyl)-3-(pyrimidin-2-yl)-1H-pyrazol-4-yl)-2-(1H-pyrazol-4-yl)thiazole-4-carboxamide]
TLR7-dependent cytokine production [1]: potent inhibitor
TLR4-induced IL-23 production [3]: inhibits
TLR2- induced TNF-α production [4]: blocks
